Laboratory results from patent US6376497B1, “Antifungal azole derivatives having a fluorinated vinyl group and process for preparing same” (Korea Research Institute of Chemical Technology, priority 1999, dated 2002).
Converted amounts (≈) assume the structure as drawn.

Columns and labels:
Assay in all cases: In vitro antifungal activity, microbroth dilution MIC
Type in all cases: cell-based
[1] = tested on: Cryptococcus neoformans B. 42419; settings: 4 to 48 hours; for Minimal inhibitory concentration (MIC): Cry. neoformans B. 42419, RPMI-1640, 35° C.
Procedure, shortened: (§1)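 Broth microdilution adapted from NCCLS M27, in RPMI-1640 with 0.165 M MOPS, pH 7.0. Yeast or mould inoculum at 2×10^3 CFU/ml was mixed 1:1 with DMSO-derived compound solutions (200 to 0.10 μg/ml before mixing) and incubated at 35 °C for 4 to 48 h. MIC was the concentration showing no growth.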

[2] = tested on: Trichophyton mentagrophytes A. 9129; settings: 4 to 48 hours; for Minimal inhibitory concentration (MIC): T. mentagrophytes A. 9129, RPMI-1640, 35° C.
Procedure, shortened: as §1

[3] = tested on: Candida pseudotropicalis K. 11658; settings: 4 to 48 hours; for Minimal inhibitory concentration (MIC): C. pseudotropicalis K. 11658, RPMI-1640, 35° C.
Procedure, shortened: as §1

[4] = tested on: Torulopsis glabrata B. 16205; settings: 4 to 48 hours; for Minimal inhibitory concentration (MIC): T. glabrata B. 16205, RPMI-1640, 35° C.
Procedure, shortened: as §1

[5] = tested on: Candida albicans A. 10231; settings: 4 to 48 hours; for Minimal inhibitory concentration (MIC): C. albicans A. 10231, RPMI-1640, 35° C.
Procedure, shortened: as §1

[6] = tested on: Candida parapsitosis A. 7330; settings: 4 to 48 hours; for Minimal inhibitory concentration (MIC): C. parapsitosis A. 7330, RPMI-1640, 35° C.
Procedure, shortened: as §1

[7] = tested on: Aspergillus furnigatus B. 19119; settings: 4 to 48 hours; for Minimal inhibitory concentration (MIC): A furnigatus B. 19119, RPMI-1640, 35° C.
Procedure, shortened: as §1

[8] = tested on: Trichophyton mentagrophytes B. 32663; settings: 4 to 48 hours; for Minimal inhibitory concentration (MIC): T. mentagrophytes B. 32663, RPMI-1640, 35° C.
Procedure, shortened: as §1

[9] = tested on: Candida albicans IFO. 1385; settings: 4 to 48 hours; for Minimal inhibitory concentration (MIC): C. albicans IFO. 1385, RPMI-1640, 35° C.
Procedure, shortened: as §1

Candida albicans C1-2 = settings: 4 to 48 hours; for Minimal inhibitory concentration (MIC): C. albicans C1-2, RPMI-1640, 35° C.
Procedure, shortened: as §1

[10] = tested on: Cryptococcus neoformans IFM. 40092; settings: 4 to 48 hours; for Minimal inhibitory concentration (MIC): Cry. neoformans IFM. 40092, RPMI-1640, 35° C.
Procedure, shortened: as §1

[11] = tested on: Candida tropicalis A. 13803; settings: 4 to 48 hours; for Minimal inhibitory concentration (MIC): C. tropicalis A. 13803, RPMI-1640, 35° C.
Procedure, shortened: as §1

[12] = tested on: Cryptococcus neoformans A. 34144; settings: 4 to 48 hours; for Minimal inhibitory concentration (MIC): Cry. neoformans A. 34144, RPMI-1640, 35° C.
Procedure, shortened: as §1

Candida krusei K. 11655 = settings: 4 to 48 hours; for Minimal inhibitory concentration (MIC): C. krusei K. 11655, RPMI-1640, 35° C.
Procedure, shortened: as §1

[13] = tested on: Aspergillus niger A. 16404; settings: 4 to 48 hours; for Minimal inhibitory concentration (MIC): A. niger A. 16404, RPMI-1640, 35° C.
Procedure, shortened: as §1

[14] = RPMI-1640, 35° C., no growth observed

Minimal inhibitory concentration (MIC) [1] [µg/mL] | Minimal inhibitory concentration (MIC) [2] [µg/mL] | Minimal inhibitory concentration (MIC) [3] [µg/mL] | Minimal inhibitory concentration (MIC) [4] [µg/mL] | Minimal inhibitory concentration (MIC) [5] [µg/mL] | Minimal inhibitory concentration (MIC) [6] [µg/mL] | Minimal inhibitory concentration (MIC) [7] [µg/mL] | Minimal inhibitory concentration (MIC) [8] [µg/mL] | Minimal inhibitory concentration (MIC) [9] [µg/mL] | Minimal inhibitory concentration (MIC) (Candida albicans C1-2) [µg/mL] | Minimal inhibitory concentration (MIC) [10] | Minimal inhibitory concentration (MIC) [11] [µg/mL] | Minimal inhibitory concentration (MIC) [12] [µg/mL] | Minimal inhibitory concentration (MIC) (Candida krusei K. 11655) [µg/mL] | Minimal inhibitory concentration (MIC) [13] [µg/mL] | SMILES | other results
3.13 (≈ 6.56 µM) | 3.13 (≈ 6.56 µM) | 12.5 (≈ 26.2 µM) | 6.25 (≈ 13.1 µM) | 6.25 (≈ 13.1 µM) | 12.5 (≈ 26.2 µM) | 6.25 (≈ 13.1 µM) | 3.13 (≈ 6.56 µM) | 0.78 (≈ 1.63 µM) | 12.5 (≈ 26.2 µM) | 1.56 µg/mL (≈ 3.27 µM) | 12.5 (≈ 26.2 µM) | 3.13 (≈ 6.56 µM) | 12.5 (≈ 26.2 µM) | 6.25 (≈ 13.1 µM) | Cc1cc(C)cc(C=C(F)OCC2COC(Cn3ccnc3)(c3ccc(Cl)cc3Cl)O2)c1 (stereo not drawn) [Ex. 6] | –
1.56 (≈ 3.25 µM) | 3.13 (≈ 6.53 µM) | 6.25 (≈ 13 µM) | 6.25 (≈ 13 µM) | 12.5 (≈ 26.1 µM) | 12.5 (≈ 26.1 µM) | 6.25 (≈ 13 µM) | 1.56 (≈ 3.25 µM) | 1.56 (≈ 3.25 µM) | 25.0 (≈ 52.2 µM) | 0.78 µg/mL (≈ 1.63 µM) | 25.0 (≈ 52.2 µM) | 3.13 (≈ 6.53 µM) | 6.25 (≈ 13 µM) | 6.25 (≈ 13 µM) | COc1ccc(C=C(F)OCC2COC(Cn3ccnc3)(c3ccc(Cl)cc3Cl)O2)cc1 (stereo not drawn) [Ex. 9] | –
– | – | – | – | – | – | – | – | – | – | – | – | – | – | – | FC(Oc1ccc(OCC2COC(Cn3cncn3)(c3ccc(Cl)cc3Cl)O2)cc1)=C(c1ccc(Cl)cc1)C(F)(F)F (mixture of isomers) [Ex. 122] | Minimal inhibitory concentration(MIC), Cry. neoformans B. 42419 [1, 14]: 1.56 µg/mL; Minimal inhibitory concentration(MIC), T. mentagrophytes A. 9129 [2, 14]: 6.25 µg/mL; Minimal inhibitory concentration(MIC), C. pseudotropicalis K. 11658 [3, 14]: 6.25 µg/mL; Minimal inhibitory concentration(MIC), T. glabrata B. 16205 [4, 14]: 12.5 µg/mL; Minimal inhibitory concentration(MIC), C. albicans A. 10231 [5, 14]: 12.5 µg/mL; Minimal inhibitory concentration(MIC), C. parapsitosis A. 7330 [6, 14]: 6.25 µg/mL; Minimal inhibitory concentration(MIC), A furnigatus B. 19119 [7, 14]: 12.5 µg/mL; Minimal inhibitory concentration(MIC), T. mentagrophytes B. 32663 [8, 14]: 3.13 µg/mL; Minimal inhibitory concentration(MIC), C. albicans IFO. 1385 [9, 14]: 0.78 µg/mL; Minimal inhibitory concentration(MIC), C. albicans C1-2 (Candida albicans C1-2; [14]): 6.25 µg/mL; Minimal inhibitory concentration(MIC), Cry. neoformans IFM. 40092 [10, 14]: 0.20 µg/mL; Minimal inhibitory concentration(MIC), C. tropicalis A. 13803 [11, 14]: 25.0 µg/mL; Minimal inhibitory concentration(MIC), Cry. neoformans A. 34144 [12, 14]: 0.78 µg/mL; Minimal inhibitory concentration(MIC), C. krusei K. 11655 (Candida krusei K. 11655; [14]): 12.5 µg/mL; Minimal inhibitory concentration(MIC), A. niger A. 16404 [13, 14]: 100 µg/mL
1.56 | 3.13 | 25.0 | 6.25 | 12.5 | >100 | 3.13 | 1.53 | 0.78 | 12.5 | ≦0.10 μg/ml | 50.0 | 1.56 | 100 | 12.5 | FC(OCC1COC(Cn2ccnc2)(c2ccc(F)cc2F)O1)=C(c1cccc(F)c1)C(F)(F)F (mixture of isomers) [Ex. 65] | –
